Source: patent publication US20060008574A1, “Galactosyl isomalt, method for production and use thereof” (priority 2002, published 2006)

Columns and labels:
Format in all cases: cell-based
B. infantis DSM 20088 = assay: Fermentation by human bifidobacteria; design: key: −: no decomposition; +: decomposition and metabolization of galactose from β-1,3-galactosyl isomalt; ++: decomposition and metabolization of galactose and glucose from β-1,3-galactosyl isomalt; +++: complete decomposition of β-1,3-galcatosyl isomalt; conditions: medium 2, 48 h
Procedure: (§1) To investigate the prebiotic and bifidogenic properties of galactosyl isomalt, the growth of various human bifidobacteria was investigated on this substrate in vitro. An anaerobic medium of the following composition was used:
(§2) 22 strains of human bifidobacteria were first precultured in “Hungate” test tubes on the above medium 1, in which the source of carbohydrate had first been replaced by glucose (10 g/L). The strains were then inoculated onto medium 2, incubated for 48 h, and then the optical density (E578), the pH, the formation of acetate and lactate and the decrease of the β-1,3-galactosyl isomalt concentration were determined.
(§3) Various decomposition paths are distinguished with regard to the metabolization of galactosyl isomalt. Some strains degrade galactose from the substrate with a β-galactosidase and metabolize this monosaccharide (+).
(§4) Other strains additionally degrade glucose from the resulting isomalt, in addition to galactose, metabolize both monosaccharides, while this is not true for the resulting mannitol or sorbitol (++). The third group is capable of utilizing galactosyl isomalt as a substrate and also metabolizing mannitol and sorbitol (+++).

B. catenulatum DSM 20224 = assay: Fermentation by human bifidobacteria; design: key: −: no decomposition; +: decomposition and metabolization of galactose from β-1,3-galactosyl isomalt; ++: decomposition and metabolization of galactose and glucose from β-1,3-galactosyl isomalt; +++: complete decomposition of β-1,3-galcatosyl isomalt; conditions: medium 2, 48 h
Procedure: as §1, §2, §3, §4

B. catenulatum DSM 20103 = assay: Fermentation by human bifidobacteria; design: key: −: no decomposition; +: decomposition and metabolization of galactose from β-1,3-galactosyl isomalt; ++: decomposition and metabolization of galactose and glucose from β-1,3-galactosyl isomalt; +++: complete decomposition of β-1,3-galcatosyl isomalt; conditions: medium 2, 48 h
Procedure: as §1, §2, §3, §4

B. angulatum DSM 20098 = assay: Fermentation by human bifidobacteria; design: key: −: no decomposition; +: decomposition and metabolization of galactose from β-1,3-galactosyl isomalt; ++: decomposition and metabolization of galactose and glucose from β-1,3-galactosyl isomalt; +++: complete decomposition of β-1,3-galcatosyl isomalt; conditions: medium 2, 48 h
Procedure: as §1, §2, §3, §4

[1] = tested on: B. pseudocatenulatum DSM 20438; assay: Fermentation by human bifidobacteria; design: key: −: no decomposition; +: decomposition and metabolization of galactose from β-1,3-galactosyl isomalt; ++: decomposition and metabolization of galactose and glucose from β-1,3-galactosyl isomalt; +++: complete decomposition of β-1,3-galcatosyl isomalt; conditions: medium 2, 48 h
Procedure: as §1, §2, §3, §4

[2] = tested on: B. adolescentis DSM 20083; assay: Fermentation by human bifidobacteria; design: key: −: no decomposition; +: decomposition and metabolization of galactose from β-1,3-galactosyl isomalt; ++: decomposition and metabolization of galactose and glucose from β-1,3-galactosyl isomalt; +++: complete decomposition of β-1,3-galcatosyl isomalt; conditions: medium 2, 48 h
Procedure: as §1, §2, §3, §4

B. longum DSM 20219 = assay: Fermentation by human bifidobacteria; design: key: −: no decomposition; +: decomposition and metabolization of galactose from β-1,3-galactosyl isomalt; ++: decomposition and metabolization of galactose and glucose from β-1,3-galactosyl isomalt; +++: complete decomposition of β-1,3-galcatosyl isomalt; conditions: medium 2, 48 h
Procedure: as §1, §2, §3, §4

B. infantis DSM 20090 = assay: Fermentation by human bifidobacteria; design: key: −: no decomposition; +: decomposition and metabolization of galactose from β-1,3-galactosyl isomalt; ++: decomposition and metabolization of galactose and glucose from β-1,3-galactosyl isomalt; +++: complete decomposition of β-1,3-galcatosyl isomalt; conditions: medium 2, 48 h
Procedure: as §1, §2, §3, §4

B. infantis DSM 20218 = assay: Fermentation by human bifidobacteria; design: key: −: no decomposition; +: decomposition and metabolization of galactose from β-1,3-galactosyl isomalt; ++: decomposition and metabolization of galactose and glucose from β-1,3-galactosyl isomalt; +++: complete decomposition of β-1,3-galcatosyl isomalt; conditions: medium 2, 48 h
Procedure: as §1, §2, §3, §4

[3] = tested on: B. adolescentis DSM 20087; assay: Fermentation by human bifidobacteria; design: key: −: no decomposition; +: decomposition and metabolization of galactose from β-1,3-galactosyl isomalt; ++: decomposition and metabolization of galactose and glucose from β-1,3-galactosyl isomalt; +++: complete decomposition of β-1,3-galcatosyl isomalt; conditions: medium 2, 48 h
Procedure: as §1, §2, §3, §4

B. longum DSM 20097 = assay: Fermentation by human bifidobacteria; design: key: −: no decomposition; +: decomposition and metabolization of galactose from β-1,3-galactosyl isomalt; ++: decomposition and metabolization of galactose and glucose from β-1,3-galactosyl isomalt; +++: complete decomposition of β-1,3-galcatosyl isomalt; conditions: medium 2, 48 h
Procedure: as §1, §2, §3, §4

B. breve DSM 20213 = assay: Fermentation by human bifidobacteria; design: key: −: no decomposition; +: decomposition and metabolization of galactose from β-1,3-galactosyl isomalt; ++: decomposition and metabolization of galactose and glucose from β-1,3-galactosyl isomalt; +++: complete decomposition of β-1,3-galcatosyl isomalt; conditions: medium 2, 48 h
Procedure: as §1, §2, §3, §4

[4] = tested on: B. adolescentis DSM 20086; assay: Fermentation by human bifidobacteria; design: key: −: no decomposition; +: decomposition and metabolization of galactose from β-1,3-galactosyl isomalt; ++: decomposition and metabolization of galactose and glucose from β-1,3-galactosyl isomalt; +++: complete decomposition of β-1,3-galcatosyl isomalt; conditions: medium 2, 48 h
Procedure: as §1, §2, §3, §4

human feces = assay: In vitro fermentation in human feces; conditions: for Degradation rate: 0.5% (w/v) substrate, feces suspension, anaerobic, 37° C.
Procedure: Incubation of carbohydrates with human feces allows statements to be made about the rate of metabolization by the bacterial population and formation of the short-chain fatty acid butyric acid.
To invest the fermentability in an in vitro fermentation experiment, Raftilose® P95 (fructooligosaccharides, DP4-5), galactosyl lactose (Oligomate DP 3) and lactosucrose were used for comparison as carbohydrates of similar structure and degree of polymerization, in addition to β-galactosyl isomalts.
An anaerobic medium of the following composition was used for the in vitro experiments:
9 mL of the anaerobic medium 1 described above are mixed with 0.5% (w/v) of the galactosyl isomalts to be tested (prepared according to Examples 1-3) and the corresponding controls lactosucrose and galactosyl lactose and then inoculated with 1 mL of a 10% feces suspension (mixed feces from two subjects) in anaerobic 50 mmol/L phosphate buffer, pH 7.0, to which 0.5 g/L cysteine/HCl was added beforehand as reducing agent.
The batches are then incubated in “Hungate” test tubes for a maximum of 28 h while shaking at 37° C. Samples are taken at various times and tested for content of residual oligosaccharides, short-chain fatty acids, lactic acid and pH.

OCC1O[C@H](OC[C@@H](O)[C@@H](O)[C@H](O)C(O)CO)C(O)C(O[C@@H]2OC(CO)[C@H](O)C(O)C2O)[C@@H]1O (mixture of isomers) [β-1,3-Galactosyl isomalt, β-D-galactosyl-(1→3)-α-D-glucosyl-(1→6)-D-sorbitol(β-1,3-galactosyl-1,6-GPS) and β-D-galactosyl-(1→3)-α-D-glucosyl-(1→1)-D-mannitol(β-1,3-galactosyl-1,1-GPM)]
Growth on β-1,3-galactosyl isomalt (B. infantis DSM 20088): ++
Growth on β-1,3-galactosyl isomalt (B. catenulatum DSM 20224): ++
Growth on β-1,3-galactosyl isomalt (B. catenulatum DSM 20103): ++
Growth on β-1,3-galactosyl isomalt (B. angulatum DSM 20098): ++
Growth on β-1,3-galactosyl isomalt [1]: ++
Growth on β-1,3-galactosyl isomalt [2]: +++
Growth on β-1,3-galactosyl isomalt (B. longum DSM 20219): +++
Growth on β-1,3-galactosyl isomalt (B. infantis DSM 20090): ++
Growth on β-1,3-galactosyl isomalt (B. infantis DSM 20218): −
Growth on β-1,3-galactosyl isomalt [3]: +++
Growth on β-1,3-galactosyl isomalt (B. longum DSM 20097): ++
Growth on β-1,3-galactosyl isomalt (B. breve DSM 20213): +
Growth on β-1,3-galactosyl isomalt [4]: +++
Butyrate content (end sample) (human feces; end of fermentation with human feces): 13.3 mmol/L
Degradation rate (human feces; incubation time 7 (h)): 62%
Degradation rate (human feces; incubation time 22 (h)): 93.6%
Degradation rate (human feces; incubation time 28 (h)): 97%
